Source: US20250275975A1, “Methods of Treating Neuropathies” (Athira Pharma, Inc., priority 2023, published 2025)

Key:
STZ DNP rats [1] = test: Mechanical allodynia rescue assay (Von Frey paw withdrawal threshold), Example B1; format: in vivo, Sprague Dawley rats; set-up: key to Efficacy: rescue of mechanical allodynia behavior as measured by paw withdrawal threshold: NS indicates treatment did not significantly affect paw withdrawal threshold vs disease control.; + indicates p < 0.05 vs disease control.; ++ indicates p < 0.01 vs disease control.; +++ indicates p < 0.001 vs disease control; settings: for Efficacy: rescue of mechanical allodynia behavior as measured by paw withdrawal threshold: study day 28 after 14 days of treatment, p vs disease control; for rescue of the mechanical allodynia behavior as measured by paw withdrawal threshold: STZ DNP rats
Description: Hyperglycemic rats consistently develop neuropathic pain-associated behaviors including mechanical allodynia. Allodynia refers to a type of neuropathic pain characterized by increased sensitivity to stimuli that are not normally painful. Mechanical allodynia is quantified in rats by determination of the force required to induce a withdrawal of the paw and is negatively associated with allodynia such that, the lower the force required to induce paw withdrawal, the greater the pain behavior.
(§1) A series of studies were performed to determine the ability of HGF/MET positive modulator compounds to reduce the mechanical allodynia pain behaviors in hyperglycemic rats. A single dose of STZ (55 mg/kg via intravenous (IV)) was administered to induce a Type I diabetic hyperglycemia in male Sprague Dawley rats. Hyperglycemia was confirmed 4 days after STZ administration, with blood glucose levels above 200 mg/dL considered successful model induction. 14 days after disease induction, test compound treatment was initiated and continued as daily compound administration over the remaining course of the study. Route and dose for each compound were determined by pharmacokinetic and distribution modelling. Control groups included animals with no diabetic induction (Sham control), animals with diabetes but treated only with formulation vehicle (DNP (diabetic peripheral neuropathy) control), and disease animals treated with pregabalin (30 mg/kg via PO), which is known to reduce neuropathic pain behaviors.
(§2) Changes to neuropathic pain behaviors were assessed after 14 days of compound treatment on study day 28. Mechanical allodynia was tested by placing each animal on an elevated wire grid and stimulating the plantar surface of the right rear paw with a series of filaments corresponding to increasing orders of force, reaching a maximum force of 60 grams (Aesthesio manual Von Frey filaments). The force of the filament that causes paw withdrawal was considered the paw withdrawal threshold in grams. Pain sensitivity in response to thermal hyperalgesia was determined by using hot plate method and represented as paw withdrawal latency (PWL). Rats were placed on the hot plate (52.5° C.), and the time taken to show the nocifensive behavior (either licking or jumping) of any of their paws was recorded. Statistical comparison of treatment groups to DNP control groups was performed by one-way ANOVA followed by Dunnett's multiple comparisons test.

STZ DNP rats [2] = test: Thermal hyperalgesia rescue assay (hot plate paw withdrawal latency), Example B1; format: in vivo, Sprague Dawley rats; set-up: key to Efficacy: rescue of thermal hyperalgesia behavior as measured by paw withdrawal latency: NS indicates treatment did not significantly affect paw withdrawal latency vs disease control.; + indicates p < 0.05 vs disease control.; ++ indicates p < 0.01 vs disease control.; +++ indicates p < 0.001 vs disease control; settings: for Efficacy: rescue of thermal hyperalgesia behavior as measured by paw withdrawal latency: study day 28 after 14 days of treatment, hot plate 52.5° C., p vs disease control; for rescue of thermal allodynia behavior as measured by paw withdrawal latency: STZ DNP rats
Procedure: as §1, §2

[3] = system: neuron-Schwann cell co-cultures; test: Sensory neurite extension and myelination in healthy primary dorsal root ganglia cultures; format: cell-based, rat; set-up: key to Significant promotion of Neurite Network Extension of Sensory Neurons / Significant promotion of Myelination of Sensory neurons by Schwann Cells: “NS” indicates the treatment did not have a significant effect; “+” indicates the treatment had a significant effect; settings: for Significant promotion of Myelination of Sensory neurons by Schwann Cells / Significant promotion of Neurite Network Extension of Sensory Neurons: Healthy cultures, vs vehicle
Procedure: (§3) To assess the effects of test compound treatment on these structures central to neuropathic pathology, peripheral sensory neurons were modeled using dissociated primary cultures of neurons and Schwann cells collected from fetal rats. Fetal rats were collected from pregnant females after 15 days of gestation, and the dorsal root ganglion was dissociated via trypsin digestion and mechanical disruption. The resulting cells were plated and allowed to grow for 7 days. On day 7 in culture, ascorbic acid at a concentration of 50 μM was added to the culture to promote myelination of sensory neurons by Schwann cells.
To model the effects of Compound 5a in the normal peripheral nervous system, neuron-Schwann cell co-cultures were treated with Compound 5a in combination with low doses of recombinant hepatocyte growth factor (HGF). On day 8 in culture, experimental treatments were added to culture media. These treatments included HGF with or without Compound 5a. Some cultures were treated with the steroid hormone B-estradiol to serve as a positive control. Treatments were applied every other day, and on day 21 in culture the cultures were fixed with ethanol and processed for immunodetection of both microtubule-associate protein 2 (MAP2) to reveal neurons and their neurites as well as myelin-associated glycoprotein (MAG) to reveal Schwann cells and the extent of their myelination of cultured neurites. Cells were counterstained with Hoechst DNA dye to identify individual cells.
(§4) 30 fluorescent images were captured for each treatment group and images were quantified by automated image analysis. Neurite network extension was quantified as the total length of MAP2-positive neurites per cell measured in μm. Myelination by Schwann cells was quantified by the area of overlap between MAP2-positive neurites and MAG-positive myelin wrapping measured in μm^2. Statistical analysis was performed as a one-way ANOVA with Fisher's LSD post-test against either vehicle- or Cisplatin-treated groups respectively.

[4] = system: neuron-Schwann cell co-cultures injured with cisplatin; test: Sensory neurite extension and myelination in cisplatin-injured primary dorsal root ganglia cultures; format: cell-based, rat; set-up: key to Significant promotion of Neurite Network Extension of Sensory Neurons / Significant promotion of Myelination of Sensory neurons by Schwann Cells: “NS” indicates the treatment did not have a significant effect; “+” indicates the treatment had a significant effect; settings: for Significant promotion of Myelination of Sensory neurons by Schwann Cells / Significant promotion of Neurite Network Extension of Sensory Neurons: +Cisplatin injury (10 μg/ml, 24 hours), vs Cisplatin-treated group
Procedure: as §3
To model the effects of neuropathic injury in sensory neurons and associated Schwann cells, cultures were injured with the chemotherapy drug cisplatin. These cultures were prepared identically to those described above. In this system, Compound 5a, HGF, and β-estradiol treatments began on culture day 19. Also on culture day 19, cisplatin (10 μg/ml) was added to the cultures for 24 hours. On culture day 20, cisplatin was removed from the media while test compound treatments were replaced for 24 hours. On day 21 in culture, cells were fixed and processed for immunodetection as described above.
as §4

[5] = healthy cultures, HGF alone at either 0.05 or 5 ng/ml
[6] = injured cultures, HGF alone at either 0.05 or 5 ng/ml
[7] = healthy cultures, positive control β-estradiol
[8] = injured cultures, positive control β-estradiol

Compound: CCC(C)CN1CC2N(C(=O)c3ccc(OC(F)F)cc3)CCC(=O)N2[C@@H](C)C1=O (stereo partly shown) [Compound 2a]
- Efficacy: rescue of mechanical allodynia behavior as measured by paw withdrawal threshold (STZ DNP rats [1]; 0.00625 mg/kg PO daily): + (+ indicates p < 0.05 vs disease control.)
- Efficacy: rescue of mechanical allodynia behavior as measured by paw withdrawal threshold (STZ DNP rats [1]; 0.025 mg/kg PO daily): ++ (++ indicates p < 0.01 vs disease control.)
- Efficacy: rescue of mechanical allodynia behavior as measured by paw withdrawal threshold (STZ DNP rats [1]; 0.1 mg/kg PO daily): +++ (+++ indicates p < 0.001 vs disease control.)
- Efficacy: rescue of mechanical allodynia behavior as measured by paw withdrawal threshold (STZ DNP rats [1]; 1 mg/kg PO daily): +++ (+++ indicates p < 0.001 vs disease control.)
- rescue of the mechanical allodynia behavior as measured by paw withdrawal threshold (STZ DNP rats [1]): significant rescue
- Efficacy: rescue of thermal hyperalgesia behavior as measured by paw withdrawal latency (STZ DNP rats [2]; 0.00625 mg/kg PO daily): + (+ indicates p < 0.05 vs disease control.)
- Efficacy: rescue of thermal hyperalgesia behavior as measured by paw withdrawal latency (STZ DNP rats [2]; 0.025 mg/kg PO daily): NS
- Efficacy: rescue of thermal hyperalgesia behavior as measured by paw withdrawal latency (STZ DNP rats [2]; 0.1 mg/kg PO daily): ++ (++ indicates p < 0.01 vs disease control.)
- Efficacy: rescue of thermal hyperalgesia behavior as measured by paw withdrawal latency (STZ DNP rats [2]; 1 mg/kg PO daily): NS
- rescue of thermal allodynia behavior as measured by paw withdrawal latency (STZ DNP rats [2]): significant rescue

Compound: HGF: recombinant hepatocyte growth factor (HGF), added at low doses with or without Compound 5a
- Significant promotion of Myelination of Sensory neurons by Schwann Cells ([3]; HGF 0.05 ng/ml alone): NS
- Significant promotion of Neurite Network Extension of Sensory Neurons ([3]; HGF 0.05 ng/ml alone): NS
- Significant promotion of Myelination of Sensory neurons by Schwann Cells ([3]; HGF 5 ng/ml alone): NS
- Significant promotion of Neurite Network Extension of Sensory Neurons ([3]; HGF 5 ng/ml alone): NS
- myelination [3, 5]: did not significantly promote
- neurite network extension [3, 5]: did not significantly promote
- Significant promotion of Myelination of Sensory neurons by Schwann Cells ([4]; HGF 0.05 ng/ml alone): NS
- Significant promotion of Neurite Network Extension of Sensory Neurons ([4]; HGF 0.05 ng/ml alone): NS
- Significant promotion of Myelination of Sensory neurons by Schwann Cells ([4]; HGF 5 ng/ml alone): NS
- Significant promotion of Neurite Network Extension of Sensory Neurons ([4]; HGF 5 ng/ml alone): NS
- myelination [4, 6]: did not significantly promote
- neurite network extension [4, 6]: did not significantly promote

Compound: CCC(C)CN1CC2N(Cc3ccc(OC(F)F)cc3)CCC(=O)N2[C@@H](C)C1=O (stereo partly shown) [Compound 6a]
- Efficacy: rescue of mechanical allodynia behavior as measured by paw withdrawal threshold (STZ DNP rats [1]; 0.156 mg/kg PO daily): NS
- Efficacy: rescue of mechanical allodynia behavior as measured by paw withdrawal threshold (STZ DNP rats [1]; 0.625 mg/kg PO daily): + (+ indicates p < 0.05 vs disease control.)
- Efficacy: rescue of mechanical allodynia behavior as measured by paw withdrawal threshold (STZ DNP rats [1]; 2.5 mg/kg PO daily): +++ (+++ indicates p < 0.001 vs disease control.)
- Efficacy: rescue of mechanical allodynia behavior as measured by paw withdrawal threshold (STZ DNP rats [1]; 10 mg/kg PO daily): +++ (+++ indicates p < 0.001 vs disease control.)
- rescue of the mechanical allodynia behavior as measured by paw withdrawal threshold (STZ DNP rats [1]): significant rescue
- Efficacy: rescue of thermal hyperalgesia behavior as measured by paw withdrawal latency (STZ DNP rats [2]; 0.156 mg/kg PO daily): NS
- Efficacy: rescue of thermal hyperalgesia behavior as measured by paw withdrawal latency (STZ DNP rats [2]; 0.625 mg/kg PO daily): NS
- Efficacy: rescue of thermal hyperalgesia behavior as measured by paw withdrawal latency (STZ DNP rats [2]; 2.5 mg/kg PO daily): ++ (++ indicates p < 0.01 vs disease control.)
- Efficacy: rescue of thermal hyperalgesia behavior as measured by paw withdrawal latency (STZ DNP rats [2]; 10 mg/kg PO daily): +++ (+++ indicates p < 0.001 vs disease control.)
- rescue of thermal allodynia behavior as measured by paw withdrawal latency (STZ DNP rats [2]): significant rescue

Compound: C[C@]12CC[C@@H]3c4ccc(O)cc4CC[C@H]3[C@@H]1CC[C@@H]2O [β-estradiol, reference compound]
- Significant promotion of Myelination of Sensory neurons by Schwann Cells ([3]; β-estradiol 150 nM): +
- Significant promotion of Neurite Network Extension of Sensory Neurons ([3]; β-estradiol 150 nM): +
- myelination of sensory neurons by Schwann cells [3, 7]: significantly promoting
- neurite network extension [3, 7]: significantly promoting
- Significant promotion of Myelination of Sensory neurons by Schwann Cells ([4]; β-estradiol 150 nM): +
- Significant promotion of Neurite Network Extension of Sensory Neurons ([4]; β-estradiol 150 nM): +
- myelination of sensory neurons by Schwann cells [4, 8]: significantly promoting
- neurite network extension [4, 8]: significantly promoting
